In patent US12617756B2 (ABIVAX, priority 2019, dated 2026):

test system: RSV A2; assay: Screening for RSV inhibition using Viral ToxGlo assay (cytopathic effect inhibition in HEp-2 cells); type: cell-based, Respiratory Syncytial Virus (RSV); conditions: human respiratory syncytial virus; RSV A2 in HEp-2 cells, MOI 0.5, 72h p.i., cytopathic effect inhibition relative to virus control, Viral ToxGlo luminescence
Protocol: Protocol for Screening Antiviral Compounds for RSV Inhibition and Cytotoxicity Using Viral ToxGlo Assay
HEp-2 cells were maintained in Eagle's minimum essential medium (EMEM) with Earle's BSS adjusted to contain 2 mM L-glutamine, 10% fetal bovine serum, 100 U/ml penicillin and 100 µg/ml streptomycin. For the purposes of the screening assay they were grown to 90% confluency, trypsinized and recovered. The trypsin was neutralised with cell culture media and cells were centrifuged at 150×g for 5 minutes before discarding the supernatant and resuspending cell pellet in assay media (EMEM with Earle's BSS adjusted to contain 2 mM L-glutamine, 2% fetal bovine serum and 100 U/ml penicillin and 100 µg/ml streptomycin). The cells were seeded into white clear-bottomed cell culture plates at a density of 1.5×10^4 cells/well in 50 μl and 4×10^3 cells/well in 25 μl for 96 well plates and 384 well plates respectively. For the media/background control column assay media only was added. Cell plates were placed in a humid chamber and incubated overnight at 37° C./5% CO2. After overnight incubation cells were checked for confluency and healthy appearance.
Test articles were made up at 10× test concentration in a maximum DMSO concentration of 10% (final assay concentration maximal 1% DMSO) and added to the cell plates in volumes of […] for 96 well plates and 5 μl for 384 well plates. For cell control and virus control wells the test article solvent only was added. Virus or assay media for cytotoxicity test wells and media/cell control wells was added immediately after test articles at an MOI of […] for 96 and 384 well plates respectively. Virus suspension was prepared by thawing RSV A2 frozen stocks and diluting to the required concentration of plaque forming units in assay media on ice.
Cell plates were further incubated inside a humid chamber for 72h p.i at 37° C./5% CO2. After the incubation period cells were observed under the microscope to check for characteristic cytopathic effect in virus control wells and healthy cells in the cell control wells. After plates were adjusted to room temperature 20/40 μl Viral ToxGlo (Promega) was added to each well of the 384/96 well cell plates. Plates were incubated at room temperature, protected from light on a plate rocker for 20 minutes before measuring the luminescence on a spectrophotometer (Biotek Synergy HTX).

SMILES	EC50 [nM]
CC(C)(C)c1cc(C(=O)N=C2NCCN2)ccc1Nc1cccc(C(=O)NCCC2CCOCC2)c1 [Compound 39, 3-tert-butyl-N-[(2E)-imidazolidin-2-ylidene]-4-[(3-{[2-(oxan-4-yl)ethyl]carbamoyl}phenyl)amino]benzamide]	66.2
CC(C)CCC(=O)Nc1ccccc1Oc1ccc(C(=O)N=C2NCCN2)cc1C1CC1 [Compound 100, 3-cyclopropyl-N-[(2E)-imidazolidin-2-ylidene]-4-[2-(4-methylpentanamido)phenoxy]benzamide]	458
O=C(N=C1NCCN1)c1ccc(Nc2cccc(C(=O)NC3CCOC3)c2)c(C2CCCC2)c1 (centres unmarked) [Compound 95, 3-cyclopentyl-N-[(2Z)-imidazolidin-2-ylidene]-4-({3-[(oxolan-3-yl)carbamoyl]phenyl}amino)benzamide]	95.9
CCC1(NC(=O)c2cccc(Nc3ccc(C(=O)N=C4NCCN4)cc3C3CC3)c2)CC1 [Compound 31, 3-cyclopropyl-4-({3-[(1-ethylcyclopropyl)carbamoyl]phenyl}amino)-N-[(2Z)-imidazolidin-2-ylidene]benzamide]	47.7
CC1(C(=O)Nc2cccc(Nc3ccc(C(=O)N=C4NCCN4)cc3C3CC3)c2)COC1 [Compound 161, N-{3-[(2-cyclopropyl-4-{[imidazolidin-2-ylidene]carbamoyl}phenyl)amino]phenyl}-3-methyloxetane-3-carboxamide]	690
O=C(N=C1NCCN1)c1ccc(Nc2cccc(C(=O)NC3CCOCC3)c2Cl)c(C2CC2)c1 [Compound 50, 4-({2-chloro-3-[(oxan-4-yl)carbamoyl]phenyl}amino)-3-cyclopropyl-N-[(2E)-imidazolidin-2-ylidene]benzamide]	136
O=C(N=C1NCCN1)c1ccc(Nc2cccc(C(=O)N3CCOC(C(F)(F)F)C3)c2Cl)c(C2CC2)c1 (centres unmarked) [Compound 121, 4-({2-chloro-3-[2-(trifluoromethyl)morpholine-4-carbonyl]phenyl}amino)-3-cyclopropyl-N—[imidazolidin-2-ylidene]benzamide]	5.1
CC1(NC(=O)c2cccc(Nc3c(F)cc(C(=O)N=C4NCCN4)cc3C3CC3)c2)CC1 [Compound 117, 3-cyclopropyl-5-fluoro-N-[imidazolidin-2-ylidene]-4-({3-[(1-methylcyclopropyl)carbamoyl]phenyl}amino)benzamide]	5.6
O=C(N=C1NCCN1)c1ccc(Nc2cccc(C(=O)N3C[C@@H]4C[C@H]3CO4)c2Cl)c(C2CC2)c1 [Compound 120, 4-({2-chloro-3-[(1S,4S)-2-oxa-5-azabicyclo[2.2.1]heptane-5-carbonyl]phenyl}amino)-3-cyclopropyl-N—[imidazolidin-2-ylidene]benzamide]	19.5
O=C(N=C1NCCN1)c1ccc(Nc2cccc(C(=O)N3CCOCC3)c2Cl)c(C2CCCO2)c1 (centres unmarked) [Compound 97, 4-{[2-chloro-3-(morpholine-4-carbonyl)phenyl]amino}-N-[(2E)-imidazolidin-2-ylidene]-3-(oxolan-2-yl)benzamide]	51
CC(C)NC(=O)c1cccc(Nc2ccc(C(=O)/N=C3\NCCN3C)cc2C(C)(C)C)c1 [Compound 17, 3-tert-butyl-N-[(2E)-1-methylimidazolidin-2-ylidene]-4-({3-[(propan-2-yl)carbamoyl]phenyl}amino)benzamide]	19.8
CC1(NC(=O)c2cccc(Nc3ccc(C(=O)N=C4NCCN4)cc3C3CCCO3)c2Cl)CC1 (centres unmarked) [Compound 137, 4-({2-chloro-3-[(1-methylcyclopropyl)carbamoyl]phenyl}amino)-N-[imidazolidin-2-ylidene]-3-(oxolan-2-yl)benzamide]	204
C=C(C)c1cc(C(=O)N=C2NCCN2)ccc1Nc1cccc(C(=O)NCCC(C)C)c1 [Compound 29, N-[(2E)-imidazolidin-2-ylidene]-4-({3-[(3-methylbutyl)carbamoyl]phenyl}amino)-3-(prop-1-en-2-yl)benzamide]	42.3
O=C(N=C1NCCN1)c1cc(F)c(Nc2cccc(C(=O)N3CCOCC3)c2)c(C2CCCO2)c1 (centres unmarked) [Compound 145, 3-fluoro-N-[imidazolidin-2-ylidene]-4-{[3-(morpholine-4-carbonyl)phenyl]amino}-5-(oxolan-2-yl)benzamide]	475
O=C(N=C1NCCN1)c1ccc(Nc2cccc(C(=O)NC3(C(F)(F)F)CC3)c2Cl)c(C2CC2)c1 [Compound 114, 4-[(2-chloro-3-{[1-(trifluoromethyl)cyclopropyl]carbamoyl}phenyl)amino]-3-cyclopropyl-N-[imidazolidin-2-ylidene]benzamide]	32.6
CC(C)NC(=O)c1cc(F)cc(Nc2ccc(C(=O)N=C3NCCN3)cc2C2CC2)c1C1CC1 [Compound 148, 2-cyclopropyl-3-[(2-cyclopropyl-4-{[imidazolidin-2-ylidene]carbamoyl}phenyl)amino]-5-fluoro-N-(propan-2-yl)benzamide]	347
CC(C)NC(=O)c1cccc(Nc2cc(F)c(C(=O)N=C3NCCN3)cc2C2CC2)c1 [Compound 131, 5-cyclopropyl-2-fluoro-N-[imidazolidin-2-ylidene]-4-({3-[(propan-2-yl)carbamoyl]phenyl}amino)benzamide]	77.9
O=C(N=C1NCCN1)c1ccc(Nc2cccc(C(=O)NC3CCOC3)c2Cl)c(C2CC2)c1 (centres unmarked) [Compound 28, 4-({2-chloro-3-[(oxolan-3-yl)carbamoyl]phenyl}amino)-3-cyclopropyl-N-[(2Z)-imidazolidin-2-ylidene]benzamide]	42.1
CC(C)C(=O)Nc1cccc(Nc2ccc(C(=O)N=C3NCCN3)cc2C(C)(C)C)c1 [Compound 37, 3-tert-butyl-N-[(2E)-imidazolidin-2-ylidene]-4-{[3-(2-methylpropanamido)phenyl]amino}benzamide]	55.5
CC1(NC(=O)c2cc(F)cc(Nc3ccc(C(=O)N=C4NCCN4)cc3C3CC3)c2F)CC1 [Compound 139, 3-[(2-cyclopropyl-4-{[imidazolidin-2-ylidene]carbamoyl}phenyl)amino]-2,5-difluoro-N-(1-methylcyclopropyl)benzamide]	152
CC1(NC(=O)c2cc(F)cc(Nc3ccc(C(=O)N=C4NCCN4)cc3C3CC3)c2)CC1 [Compound 47, 3-cyclopropyl-4-({3-fluoro-5-[(1-methylcyclopropyl)carbamoyl]phenyl}amino)-N-[(2Z)-imidazolidin-2-ylidene]benzamide]	113
CC(C)C1CN(C(=O)c2cccc(Nc3ccc(C(=O)N=C4NCCN4)cc3C3CC3)c2Cl)CCO1 (centres unmarked) [Compound 105, 4-({2-chloro-3-[2-(propan-2-yl)morpholine-4-carbonyl]phenyl}amino)-3-cyclopropyl-N-[(2Z)-imidazolidin-2-ylidene]benzamide]	3.2
CC(C)NC(=O)c1cccc(Nc2ccc(C(=O)N=C3NCCN3)cc2C2CCOCC2)c1 [Compound 69, N-[(2Z)-imidazolidin-2-ylidene]-3-(oxan-4-yl)-4-({3-[(propan-2-yl)carbamoyl]phenyl}amino)benzamide]	1130
O=C(N=C1NCCN1)c1ccc(Nc2cccc(C(=O)NC3CCOCC3)c2)c(C2CCCC2)c1 [Compound 96, 3-cyclopentyl-N-[(2Z)-imidazolidin-2-ylidene]-4-({3-[(oxan-4-yl)carbamoyl]phenyl}amino)benzamide]	839
CC(C)(C)C(=O)Nc1cccc(Nc2ccc(C(=O)N=C3NCCN3)cc2C(C)(C)C)c1 [Compound 20, 3-tert-butyl-4-{[3-(2,2-dimethylpropanamido)phenyl]amino}-N-[(2Z)-imidazolidin-2-ylidene]benzamide]	23.5
CC(C)NC(=O)c1cc(F)cc(Nc2ccc(C(=O)N=C3NCCN3)cc2C2CC2)c1 [Compound 32, 3-cyclopropyl-4-({3-fluoro-5-[(propan-2-yl)carbamoyl]phenyl}amino)-N-[(2Z)-imidazolidin-2-ylidene]benzamide]	49.2
O=C(N=C1NCCN1)c1cc(F)c(Nc2nccc(C(=O)N3C[C@@H]4C[C@H]3CO4)c2Cl)c(C2CC2)c1 [Compound 155, 4-({3-chloro-4-[(1S,4S)-2-oxa-5-azabicyclo[2.2.1]heptane-5-carbonyl]pyridin-2-yl}amino)-3-cyclopropyl-5-fluoro-N-[imidazolidin-2-ylidene]benzamide]	51.8
CC1(NC(=O)c2cccc(Nc3c(F)cc(C(=O)N=C4NCCN4)cc3C3CCCO3)c2)CC1 (centres unmarked) [Compound 125, 3-fluoro-N—[imidazolidin-2-ylidene]-4-({3-[(1-methylcyclopropyl)carbamoyl]phenyl}amino)-5-(oxolan-2-yl)benzamide]	19.1
CN1CCN/C1=N\C(=O)c1ccc(Nc2cccc(C(=O)NC3(C)CC3)c2)c(C(C)(C)C)c1 [Compound 24, 3-tert-butyl-4-({3-[(1-methylcyclopropyl)carbamoyl]phenyl}amino)-N-[(2E)-1-methylimidazolidin-2-ylidene]benzamide]	31.7
